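Grown in 96-well plates, cells were treated for 48 hours with each compound at five concentrations. Insufficient inhibition: endpoint recorded as highest concentration tested. TGI denotes the concentration required for complete inhibition of growth.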
Experiments:
Assay in all cases: DTP human tumour cell line panel, 48 h
[1] = tested on: SNB-19 CNS
[2] = tested on: RPMI-8226 leukemia
[3] = tested on: U251 CNS
[4] = tested on: DU-145 prostate
[5] = tested on: LOX IMVI melanoma
[6] = tested on: SK-MEL-5 melanoma
[7] = tested on: RXF 393 renal
[8] = tested on: SF-295 CNS
[9] = tested on: MALME-3M melanoma
[10] = tested on: UACC-62 melanoma
[11] = tested on: NCI-H226 lung
[12] = tested on: IGROV1 ovarian
[13] = tested on: HOP-62 NSCLC
[14] = tested on: MCF7 breast
[15] = tested on: KM12 colon
[16] = tested on: NCI-H522 lung
[17] = tested on: NCI-H460 lung
[18] = tested on: M14 melanoma
[19] = tested on: NCI-H23 lung

SMILES | TGI [1] [µM] | TGI [2] [µM] | TGI [3] [µM] | TGI [4] [µM] | TGI [5] [µM] | TGI [6] [µM] | TGI [7] [µM] | TGI [8] [µM] | TGI [9] [µM] | TGI [10] [µM] | TGI [11] [µM] | TGI [12] [µM] | TGI [13] [µM] | TGI [14] [µM] | TGI [15] [µM] | TGI [16] [µM] | TGI [17] [µM] | TGI [18] [µM] | TGI [19] [µM]
Cc1ccc(/C=C2\Cc3cc(C)c(C)cc3C2=O)c(C(=O)O)c1 | > 100 | > 100 | > 100 | > 100 | > 100 | > 100 | > 100 | > 100 | > 100 | > 100 | 89.1 | > 100 | > 100 | > 100 | > 100 | > 100 | > 100 |  | 
O/N=C1/CCCc2nonc21 | > 100 | > 100 | > 100 | > 100 | > 100 | > 100 | > 100 | > 100 | > 100 | > 100 | > 100 | > 100 | > 100 | > 100 | > 100 |  | > 100 | > 100 | > 100
N#Cc1c(-c2ccccc2)cc(-c2ccccc2)n(C2OCC(O)C(O)C2O)c1=S (stereo unspecified) | 89.7 | 34.7 | 30.4 | 49.3 | 31.9 | 27.9 | 35.6 | 39 | 81 | 16.1 | 35.9 | 33.5 | 64.7 | 41.7 | 27.2 | 37.9 | 70.6 | 53.3 | 46.4
O=C(/C=C(\Nc1ccccc1O)c1ccc(Br)cc1)C(Cl)(Cl)Cl | 20.3 | 7.29 | 15.4 | 13.8 | 32.9 | 27.7 | 19.2 | 20 | 29.2 | 26.3 | 26.5 | 23.7 | 31.6 | 20 | 13.9 | 30.2 | 12.9 | 29.2 | 26.1
S=C(N/N=C/c1ccccn1)N1CCCCCC1 | > 100 | 0.491 |  | > 100 | 64.1 | 1.18 | 5.01 | > 100 | 42.4 | 0.364 | 1.94 |  |  | 25.3 | 63.3 | 5.9 | 0.211 | 0.251 | > 58.6
Nc1ccc(-c2nc3ccc(F)cc3s2)cc1I | > 100 | > 100 | > 100 | > 100 | > 100 | > 100 | > 67.9 | > 100 | > 100 | > 100 | > 100 | > 100 | > 100 | > 100 | > 100 | > 100 | > 100 | > 100 | > 100
COc1ccc(C(=O)Oc2c(C#N)sc3c2c(=O)n(-c2ccccc2)c(=S)n3-c2ccccc2)cc1 | > 100 | 47.1 | > 100 | > 100 | 46.2 | 58 | 53.7 | > 100 |  | 24.5 | 57 | 44.4 | 73.9 | 80.4 | 54.6 | 4.11 | > 100 | 44.8 | 56.3
COC(=O)[C@@]1(NC(=O)C(CC(=O)OC(C)(C)C)NC(=O)OC(C)(C)C)C[C@H]1C (stereo partly specified) | > 100 | > 100 | > 100 | > 100 | > 100 | > 100 | > 100 | > 100 | > 100 | > 100 | > 100 | > 100 | > 100 | > 100 | > 100 | > 100 | > 100 | > 100 | > 100
O=C1C=C(C2=C(C3=CC(=O)c4ccccc4C3=O)C(=O)c3ccccc3C2=O)C(=O)c2ccccc21 | 37.7 | 12.2 | 18.1 | 16.5 | 14.6 | 23.9 | 14.5 | 34 | 4.82 | 31.6 | 29.9 | 8.1 | 33.5 | 29.6 | 30.8 | 7.17 | 39.6 | 22.5 | 19.7
O=[N+]([O-])C(=C/c1cccc2ccccc12)/C(=C\c1cccc2ccccc12)[N+](=O)[O-] | 11.5 | 6.05 | 4.32 | 8.77 | 3.06 | 6.45 | 3.67 | 8.19 | 5.49 | 3.23 | 13.7 | 4.13 | 7.03 | 16.8 | 16 | 3.63 | 7.92 | 11.3 | 4.36
CCC(=O)C(CCN1CCC(N2C(=O)C(CCC#N)c3ccccc32)CC1)(c1ccccc1)c1ccccc1 (stereo unspecified) | 32 | 21.8 | 27.8 | 26.5 | 27 | 22.1 | 16.2 | 26.1 | 24.8 | 32.6 | 32.6 | 30.5 | 32.2 | 25.5 | 28 | 25.8 | 26.9 | 22.2 | 48.8
COc1ccc(NC/C=C/C(=C/COC(C)=O)OC(C)=O)cc1 | 9.29 | 0.829 | 4.53 | 10.2 | 4.79 | 28.8 | 3.04 | 4.97 | 5.57 | 14.5 | 51.7 | 3.56 | 5.18 | > 100 | 1.99 | 4.78 | 4.8 | 3.19 | 
O=c1[nH]c2nc[nH]c2c(=O)n1C1CCCCC1 | > 100 | > 100 | > 100 | > 100 |  | > 100 | > 100 | > 100 | > 100 | > 100 | > 100 | > 100 | > 100 | > 100 | > 100 | > 100 | > 100 | > 100 | > 100
FC(F)(F)c1cccnc1Sc1nc2ccccc2s1 | > 100 | > 100 | > 100 | > 100 |  | > 100 | > 100 | > 100 | > 100 | > 100 | > 100 | > 100 | > 100 | > 100 | > 100 | > 100 | > 100 | > 100 | > 100
CCOC(=O)/C=C/C1(CCOC(C)=O)CCCCC1 | > 10 | > 10 | > 10 | > 10 | > 10 | > 10 | > 10 | > 10 |  | > 10 | > 10 | > 10 | > 10 | > 10 | > 10 | > 10 | > 10 | > 10 | > 10
CC(=O)NCCCCN(CCCNC(C)=O)C(=O)OCc1ccccc1 |  | > 100 | > 100 | > 100 | > 100 | > 100 | > 100 | > 100 | > 100 | > 100 | > 100 | > 100 | > 100 | > 100 | > 100 | > 100 | > 100 | > 100 | > 100
C=C[C@]1(O[Si](C)(C)C)C[C@@]2(C(=O)OCC)C(O)C(=O)N3CCc4cc(OC)c(OC)cc4[C@]312 (stereo partly specified) | > 100 | > 100 | > 100 | > 100 | > 100 | > 100 | > 100 | > 100 | > 100 | > 100 | > 100 | > 100 | > 100 | > 100 | > 100 |  | > 100 | > 100 | > 100
NC(=O)c1sc2nc3ccccc3n2c1N | > 100 | > 100 | 87.4 | > 100 | > 100 | > 100 | 74.8 | 50.8 | > 100 | > 100 | > 100 | > 100 | > 100 | > 100 |  |  |  | > 100 | 41.4
c1ccc(C2=C(c3ccccc3)Sc3nnc(CCCCCCCCc4nnc5n4NC(c4ccccc4)=C(c4ccccc4)S5)n3N2)cc1 | > 100 | > 100 | > 100 | > 100 | > 100 | > 100 | > 100 | > 100 | > 100 | > 100 | > 100 |  | > 100 | > 100 | > 100 | > 100 | > 100 | > 100 | > 100
CC(=O)N(CC(=O)C(=O)NNc1ccoc1)c1ccc(Cl)cc1 | > 100 | > 100 | > 100 | > 100 | > 100 | > 100 | > 100 | > 100 | > 100 |  | > 100 | > 100 | > 100 | > 100 | > 100 | > 100 | > 100 | > 100 | > 100
CSc1c(C#N)c(S)n(-c2ccc(Cl)cc2)c(=O)c1C#N | > 100 | > 100 | > 100 | > 100 | > 100 | > 100 | > 100 |  | > 100 | > 100 | > 100 | > 100 |  | > 100 | > 100 | > 100 | > 100 | > 100 | > 100
c1ccc(COC2C3COC(O3)C(OCc3ccccc3)C2OCc2ccccc2)cc1 (stereo unspecified) | > 100 | > 100 | > 100 | > 100 | > 100 | > 100 | > 100 | > 100 |  | > 100 | > 100 | > 100 | > 100 | > 100 | > 100 | 62.6 | > 100 | > 100 | > 100
CCN1C[C@]2(C)CC[C@H](OC)C34C5C[C@@H]6[C@@H](OC)C[C@@](OC)(C5[C@H]6OCc5ccccc5)C(C13)[C@H](OC(C)=O)[C@@H]42 (stereo partly specified) | > 100 | > 100 | > 100 | > 100 | > 100 | > 100 | > 100 | > 100 | > 100 | > 100 | > 100 | > 100 | > 100 | > 100 | > 100 |  | > 100 | > 100 | > 100
CCCCN(C)C(=O)C1=C(C)NC(C)=C(C(=O)N(C)CCCC)C1 | > 100 | > 100 | > 100 | > 100 | > 100 | > 100 | > 100 | > 100 |  | > 100 | > 100 | > 100 | > 100 | > 100 | > 100 | > 100 | > 100 | > 100 | > 100
Cc1ccc(S(=O)(=O)NC(=O)Nc2cc(Cl)c(S(N)(=O)=O)cc2S(N)(=O)=O)cc1 | > 100 | > 100 | > 100 | > 100 | > 100 | > 100 | > 100 | > 100 | > 100 | > 100 | > 100 | > 100 | > 100 | > 100 | > 100 | > 100 |  | > 100 | > 100

— PubChem BioAssay (NCI)
